Results as given in PubChem BioAssay AID256 (DTP/NCI, 2004).
Values joined by “and” are separate entries in the source; they are usually repeats but may differ in a detail not shown here. Identical values can stand only once. Inconclusive results and toxic doses are left out.

Tested on: CD2F1 mice, L1210 leukemia ip, survival T/C
Assay: NCI In Vivo Anticancer Drug Screen. Data for tumor model L1210 Leukemia (intraperitoneal) in CD2F1 (CDF1) mice
Conditions: higher = longer survival
Summary of the method: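 Activity against a transplanted murine tumor was judged by comparing the compound group with a vehicle group. The outcome in the treated animals was divided by that in the controls.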

[1] = endpoint: mean survival time, dose: 100.0 mg/kg/injection, schedule: Q04DX002 (ip), vehicle: saline with Tween-80
[2] = endpoint: mean survival time, dose: 200.0 mg/kg/injection, schedule: Q04DX002 (ip), vehicle: saline with Tween-80
[3] = endpoint: mean survival time, dose: 400.0 mg/kg/injection, schedule: Q04DX002 (ip), vehicle: saline with Tween-80
[4] = endpoint: mean survival time, dose: 100.0 mg/kg/injection, schedule: Q01DX009 (ip), vehicle: saline with Tween-80
[5] = endpoint: mean survival time, dose: 100.0 mg/kg/injection, schedule: Q04DX003 (ip), vehicle: saline with Tween-80
[6] = endpoint: mean survival time, dose: 200.0 mg/kg/injection, schedule: Q01DX009 (ip), vehicle: saline with Tween-80
[7] = endpoint: mean survival time, dose: 200.0 mg/kg/injection, schedule: Q04DX003 (ip), vehicle: saline with Tween-80
[8] = endpoint: mean survival time, dose: 400.0 mg/kg/injection, schedule: Q01DX009 (ip), vehicle: saline with Tween-80
[9] = endpoint: mean survival time, dose: 400.0 mg/kg/injection, schedule: Q04DX003 (ip), vehicle: saline with Tween-80
[10] = endpoint: mean survival time, dose: 300.0 mg/kg/injection, schedule: Q01DX001 (ip), vehicle: saline
[11] = endpoint: mean survival time, dose: 100.0 mg/kg/injection, schedule: Q01DX001 (ip), vehicle: saline with Tween-80
[12] = endpoint: mean survival time, dose: 200.0 mg/kg/injection, schedule: Q01DX001 (ip), vehicle: saline with Tween-80
[13] = endpoint: mean survival time, dose: 3.13 mg/kg/injection, schedule: Q01DX009 (ip), vehicle: saline with Tween-80
[14] = endpoint: mean survival time, dose: 6.25 mg/kg/injection, schedule: Q01DX009 (ip), vehicle: saline with Tween-80
[15] = endpoint: mean survival time, dose: 50.0 mg/kg/injection, schedule: Q01DX009 (ip), vehicle: saline with Tween-80
[16] = endpoint: mean survival time, dose: 25.0 mg/kg/injection, schedule: Q01DX009 (ip), vehicle: saline with Tween-80

COC1OC2COC(C)(c3ccccc3)OC2C(O)C1[NH-].COC1OC2COC(C)(c3ccccc3)OC2C(O)C1[NH-].[Cl][Pt+2][Cl] (stereo not given)
T/C (endpoint: mean survival time, dose: 12.5 mg/kg/injection, schedule: Q04DX003 (ip), vehicle: saline): 93 % of control
T/C (endpoint: mean survival time, dose: 25.0 mg/kg/injection, schedule: Q04DX003 (ip), vehicle: saline): 96 % of control
T/C (endpoint: mean survival time, dose: 50.0 mg/kg/injection, schedule: Q04DX003 (ip), vehicle: saline): 96 % of control
T/C (endpoint: mean survival time, dose: 100.0 mg/kg/injection, schedule: Q04DX003 (ip), vehicle: saline): 95 % of control
T/C (endpoint: mean survival time, dose: 200.0 mg/kg/injection, schedule: Q04DX003 (ip), vehicle: saline): 102 % of control

O=C(NCC1CCCCO1)Nc1ccc(Cl)cc1 (stereo not given)
T/C [1]: 110 % of control
T/C [2]: 102 % of control
T/C [3]: 94 % of control

NC(=O)C#CC(N)=O
T/C (endpoint: mean survival time, dose: 0.37 mg/kg/injection, schedule: Q01DX009 (ip), vehicle: saline): 101 % of control
T/C (endpoint: mean survival time, dose: 0.75 mg/kg/injection, schedule: Q01DX009 (ip), vehicle: saline): 103 % of control
T/C (endpoint: mean survival time, dose: 1.5 mg/kg/injection, schedule: Q01DX009 (ip), vehicle: saline): 109 % of control
T/C (endpoint: mean survival time, dose: 3.0 mg/kg/injection, schedule: Q01DX009 (ip), vehicle: saline): 122 % of control
T/C [4]: 95 % of control
T/C [5]: 108 % of control
T/C [6]: 98 % of control
T/C [7]: 92 % of control
T/C [8]: 108 % of control
T/C [9]: 89 % of control

CCCCCCC(C#N)C(=O)OCC (stereo not given)
T/C (endpoint: mean survival time, dose: 75.0 mg/kg/injection, schedule: Q01DX001 (ip), vehicle: saline): 100 % of control
T/C (endpoint: mean survival time, dose: 150.0 mg/kg/injection, schedule: Q01DX001 (ip), vehicle: saline): 96 % of control
T/C [10]: 100 % of control

O=C(O)CNCC(C(=O)O)C(=O)O
T/C (endpoint: mean survival time, dose: 25.0 mg/kg/injection, schedule: Q04DX002 (ip), vehicle: saline): 96 % of control
T/C (endpoint: mean survival time, dose: 50.0 mg/kg/injection, schedule: Q04DX002 (ip), vehicle: saline): 90 % of control
T/C (endpoint: mean survival time, dose: 100.0 mg/kg/injection, schedule: Q04DX002 (ip), vehicle: saline): 90 % of control

CC(O)c1cccc([N+](=O)[O-])c1 (stereo not given)
T/C [11]: 93 % of control
T/C [12]: 97 % of control
T/C (endpoint: mean survival time, dose: 400.0 mg/kg/injection, schedule: Q01DX001 (ip), vehicle: saline with Tween-80): 93 % of control

N#CC(C#N)=NNc1cccc(Cl)c1Cl
T/C (endpoint: mean survival time, dose: 5.0 mg/kg/injection, schedule: Q04DX003 (ip), vehicle: saline with Tween-80): 106 % of control
T/C (endpoint: mean survival time, dose: 10.0 mg/kg/injection, schedule: Q04DX003 (ip), vehicle: saline with Tween-80): 104 % of control
T/C (endpoint: mean survival time, dose: 20.0 mg/kg/injection, schedule: Q04DX003 (ip), vehicle: saline with Tween-80): 101 % of control

OC1COC(C(/C=N/Nc2ccccc2)=N/Nc2ccccc2)C1O (stereo not given)
T/C (endpoint: median survival time, dose: 25.0 mg/kg/injection, schedule: Q01DX005 (ip), vehicle: distilled water + Tween-80): 97 % of control
T/C (endpoint: median survival time, dose: 50.0 mg/kg/injection, schedule: Q01DX005 (ip), vehicle: distilled water + Tween-80): 94 % of control
T/C (endpoint: median survival time, dose: 100.0 mg/kg/injection, schedule: Q01DX005 (ip), vehicle: distilled water + Tween-80): 87 % of control
T/C (endpoint: median survival time, dose: 200.0 mg/kg/injection, schedule: Q01DX005 (ip), vehicle: distilled water + Tween-80): 92 % of control
T/C (endpoint: median survival time, dose: 400.0 mg/kg/injection, schedule: Q01DX005 (ip), vehicle: distilled water + Tween-80): 92 % of control

NC(=O)C(CSCc1ccccc1)NC(=O)OCc1ccccc1 (stereo not given)
T/C [4]: 91 % of control
T/C [6]: 88 % of control
T/C [8]: 91 % of control

C/C=C/C=C/C(=O)n1nnn(/C=C/C=C/C)c1=O
T/C (endpoint: mean survival time, dose: 50.0 mg/kg/injection, schedule: Q04DX002 (ip), vehicle: saline with Tween-80): 98 % of control
T/C [1]: 91 % of control
T/C [2]: 95 % of control
T/C [3]: 98 % of control

Nc1nnnc2c1ncn2C1OC(CO)C(O)C1O (stereo not given)
T/C [10]: 121 % of control

COc1cc(OC)c(/C=C/c2cc3ccccc3c[n+]2C)c(OC)c1
T/C [13]: 117 % of control
T/C [14]: 117 % of control

c1ccc(-c2cc(-c3cc(-c4ccccc4)on3)no2)cc1
T/C [15]: 91 % of control
T/C [11]: 101 % of control
T/C [4]: 94 % of control
T/C [12]: 100 % of control
T/C [6]: 96 % of control

CC(C)N1C(=O)C=C(c2ccc([N+](=O)[O-])cc2)C1=O
T/C [14]: 93 % of control
T/C (endpoint: mean survival time, dose: 12.5 mg/kg/injection, schedule: Q01DX009 (ip), vehicle: saline with Tween-80): 95 % of control
T/C [16]: 95 % of control
T/C [15]: 95 % of control

N/N=C(\NN)c1ccccc1
T/C [5]: 92 % of control
T/C [7]: 87 % of control
T/C [9]: 92 % of control

Cc1ccoc1
T/C (endpoint: median survival time, dose: 8.3 mg/kg/injection, schedule: Q03HX015 (ip), vehicle: saline with Tween-80): 101 % of control
T/C (endpoint: median survival time, dose: 16.6 mg/kg/injection, schedule: Q03HX015 (ip), vehicle: saline with Tween-80): 103 % of control
T/C (endpoint: median survival time, dose: 33.3 mg/kg/injection, schedule: Q03HX015 (ip), vehicle: saline with Tween-80): 117 % of control
T/C (endpoint: median survival time, dose: 66.6 mg/kg/injection, schedule: Q03HX015 (ip), vehicle: saline with Tween-80): 124 % of control

CC(C)(C)OC(=O)N/N=C/c1ccc2c(c1)CCC2
T/C (endpoint: mean survival time, dose: 100.0 mg/kg/injection, schedule: Q01DX001 (ip), vehicle: Klucel (hydroxypropylcellulose) (HPC)): 101 % of control
T/C (endpoint: mean survival time, dose: 200.0 mg/kg/injection, schedule: Q01DX001 (ip), vehicle: Klucel (hydroxypropylcellulose) (HPC)): 101 % of control
T/C (endpoint: mean survival time, dose: 400.0 mg/kg/injection, schedule: Q01DX001 (ip), vehicle: Klucel (hydroxypropylcellulose) (HPC)): 104 % of control

CN(C)S(=O)(=O)Oc1ccccc1N
T/C [5]: 99 % of control
T/C [7]: 87 % of control
T/C [9]: 94 % of control

O=C(O)CCn1ccccc1=O
T/C [4]: 94 % of control
T/C [5]: 95 % of control
T/C [6]: 93 % of control
T/C [7]: 96 % of control
T/C [8]: 94 % of control
T/C [9]: 95 % of control

c1cc(Oc2ccc3ccncc3c2)c2ccncc2c1
T/C [5]: 95 % of control
T/C [7]: 100 % of control
T/C [9]: 101 % of control

Nc1nc(N)c2c(Cl)c(CNc3ccc(Cl)c(Cl)c3)ccc2n1
T/C (endpoint: mean survival time, dose: 3.12 mg/kg/injection, schedule: Q01DX009 (ip), vehicle: saline with Tween-80): 110 % of control
T/C [13]: 98 % of control
T/C [14]: 114 % of control and 115 % of control
T/C [16]: 153 % of control
T/C [15]: 156 % of control and 188 % of control
T/C [4]: 111 % of control
T/C (endpoint: median survival time, dose: 6.25 mg/kg/injection, schedule: Q01DX009 (ip), vehicle: saline with Tween-80): 102 % of control and 110 % of control
T/C (endpoint: median survival time, dose: 25.0 mg/kg/injection, schedule: Q01DX009 (ip), vehicle: saline with Tween-80): 150 % of control and 153 % of control
T/C (endpoint: median survival time, dose: 50.0 mg/kg/injection, schedule: Q01DX005 (ip), vehicle: saline with Tween-80): 159 % of control
T/C (endpoint: median survival time, dose: 50.0 mg/kg/injection, schedule: Q01DX009 (ip), vehicle: saline with Tween-80): 175 % of control and 198 % of control
T/C (endpoint: median survival time, dose: 83.33 mg/kg/injection, schedule: Q01DX005 (ip), vehicle: saline with Tween-80): 202 % of control
T/C (endpoint: median survival time, dose: 83.63 mg/kg/injection, schedule: Q01DX005 (ip), vehicle: saline with Tween-80): 230 % of control
T/C (endpoint: median survival time, dose: 138.89 mg/kg/injection, schedule: Q01DX005 (ip), vehicle: saline with Tween-80): 179 % of control
T/C (endpoint: median survival time, dose: 139.39 mg/kg/injection, schedule: Q01DX005 (ip), vehicle: saline with Tween-80): 151 % of control
T/C (endpoint: median survival time, dose: 232.31 mg/kg/injection, schedule: Q01DX005 (ip), vehicle: saline with Tween-80): 117 % of control

NNC(=O)c1ccc([N+](=O)[O-])o1
T/C (endpoint: mean survival time, dose: 37.5 mg/kg/injection, schedule: Q01DX009 (ip), vehicle: saline with Tween-80): 97 % of control
T/C [5]: 110 % of control

CCOC(=O)C1SCSCC1=O (stereo not given)
T/C [4]: 101 % of control
T/C [6]: 101 % of control
T/C [8]: 98 % of control

CCOC(=O)C(=O)O
T/C (endpoint: mean survival time, dose: 200.0 mg/kg/injection, schedule: Q01DX009 (ip), vehicle: saline): 104 % of control

Cc1ccc([NH-])c([NH-])c1.[Cl][Pt+2][Cl]
T/C (endpoint: mean survival time, dose: 2.5 mg/kg/injection, schedule: Q01DX009 (ip), vehicle: saline with Tween-80): 151 % of control
T/C (endpoint: mean survival time, dose: 5.0 mg/kg/injection, schedule: Q01DX009 (ip), vehicle: saline with Tween-80): 180 % of control
T/C (endpoint: mean survival time, dose: 20.0 mg/kg/injection, schedule: Q01DX009 (ip), vehicle: saline with Tween-80): 94 % of control
